According to patent publication US9023789B2, “Amylin analogs and pharmaceutical compositions thereof” (Novo Nordisk A/S, priority 2012, dated 2015):
≈ marks a conversion by molar mass, not a printed value. Where two headings read alike, the source gives them in different places. Numbered stars: 1 amine (or outer) side, 2 acyl side, 3 side chain; on linkers, the order of the positions; unused ones are H or OH. Bridge positions count the residues as written; N and C are the ends. Side chains are listed from the residue outwards. Peptide text beside a SMILES is read from it. * marks the point of attachment. C20 diacid = O=C(O)CCCCCCCCCCCCCCCCCCC(=O)*; γGlu = O=C(O)[C@H](CCC(=O)[*:2])N[*:1]; AEEA = NCCOCCOCC(=O)O

Assays:
[1] = target: T1, human amylin 3(a) receptor (human calcitonin receptor + RAMP-3) in BHK570 cells (Homo sapiens, UniProt O60896+P30988); test: ASSAY (II)a functional assay, human amylin receptor (CRE luciferase); assay type: cell-based
T1 construct: expressed in transfected cells
T1 sequence (O60896 24-148): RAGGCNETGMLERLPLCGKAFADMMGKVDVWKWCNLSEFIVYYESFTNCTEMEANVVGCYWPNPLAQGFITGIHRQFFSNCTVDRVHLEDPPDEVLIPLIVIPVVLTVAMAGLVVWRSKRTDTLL
T1 sequence (P30988 25-474): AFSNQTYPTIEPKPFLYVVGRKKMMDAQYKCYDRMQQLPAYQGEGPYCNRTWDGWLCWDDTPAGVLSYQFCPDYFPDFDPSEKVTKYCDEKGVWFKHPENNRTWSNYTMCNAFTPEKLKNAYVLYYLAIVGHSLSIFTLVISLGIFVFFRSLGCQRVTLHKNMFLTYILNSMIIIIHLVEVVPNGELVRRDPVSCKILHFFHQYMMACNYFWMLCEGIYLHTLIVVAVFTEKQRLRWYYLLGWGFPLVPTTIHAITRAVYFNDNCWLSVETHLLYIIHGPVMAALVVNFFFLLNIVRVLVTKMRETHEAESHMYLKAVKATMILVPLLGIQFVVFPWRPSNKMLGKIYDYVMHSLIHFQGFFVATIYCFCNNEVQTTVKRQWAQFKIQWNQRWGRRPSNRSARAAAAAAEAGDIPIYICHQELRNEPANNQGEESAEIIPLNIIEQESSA
Summary of the method: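 Ligand exposure 3 h at 37 °C, 5% CO2 in DMEM with 10% FBS, 10 mM Hepes pH 7.4. cAMP-driven luciferase read by luminescence after 30 min LucLite at room temperature.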

[2] = target: T2, rat amylin receptor (rat calcitonin receptor + rat RAMP 3) (Rattus norvegicus, UniProt P32214+Q9JJ73); test: ASSAY (VI) binding to the rat amylin receptor; conditions: for IC50: binding to rat amylin receptor, read-out: rAmylin-R bind IC50
T2 construct: expressed in transfected cells; host or cells: BHK tk'ts 13 (transient, FuGENE 6), membranes
T2 sequence (P32214 25-479 isoform P32214-2 limits assumed): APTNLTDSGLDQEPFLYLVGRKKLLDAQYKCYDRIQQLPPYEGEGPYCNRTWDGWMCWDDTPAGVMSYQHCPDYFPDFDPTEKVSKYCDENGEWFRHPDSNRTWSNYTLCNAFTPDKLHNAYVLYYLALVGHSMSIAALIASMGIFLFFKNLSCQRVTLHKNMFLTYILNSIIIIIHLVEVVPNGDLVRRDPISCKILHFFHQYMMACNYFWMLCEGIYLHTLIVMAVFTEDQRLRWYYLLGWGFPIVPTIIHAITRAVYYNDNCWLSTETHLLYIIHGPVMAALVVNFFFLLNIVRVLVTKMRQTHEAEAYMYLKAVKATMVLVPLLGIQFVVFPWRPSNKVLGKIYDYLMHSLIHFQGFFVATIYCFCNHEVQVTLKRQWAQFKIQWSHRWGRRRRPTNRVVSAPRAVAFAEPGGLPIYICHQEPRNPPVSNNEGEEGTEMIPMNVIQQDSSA
T2 sequence (Q9JJ73 23-147 partner): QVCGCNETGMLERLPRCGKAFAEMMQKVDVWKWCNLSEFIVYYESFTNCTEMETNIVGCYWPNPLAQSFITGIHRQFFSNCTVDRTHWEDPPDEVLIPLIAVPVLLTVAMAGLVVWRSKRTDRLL
Summary of the method: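 This assay measured binding to the rat amylin receptor. BHK tk′ts 13 cells were transiently transfected with the rat calcitonin receptor using FuGENE® 6 (Roche), following the manufacturer's recommendations. About 48 hours after transfection, the cells were harvested and membranes were prepared from them for the binding determination.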

rat calcitonin receptor = target: T3, rat calcitonin receptor (Rattus norvegicus, UniProt P32214); test: ASSAY (VIII) binding to the rat calcitonin receptor; conditions: Table 7, read-out: rCTR bind IC50
T3 construct: expressed in transfected cells; host or cells: BHK tk'ts 13 (transient, FuGENE 6), membranes
T3 sequence (P32214 25-479 isoform P32214-2 limits assumed): T2 sequence (P32214 25-479 isoform P32214-2 limits assumed)
Summary of the method: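 Rat calcitonin receptor is expressed transiently in BHK tk′ts 13 cells cultured in DMEM with 10% FBS. Roughly two days (approximately 48 hours) post-transfection, cells are harvested for membrane preparation.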

[3] = ASSAY (IV) determination of solubility; assay type: physicochemical; conditions: for Solubility pH 6.5 Concentration: pH 6.5 (Table 9a); for Solubility pH 7.0 Concentration: pH 7.0 (Table 9a)
Summary of the method: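 Dissolve polypeptide in water ([…] stock); combine 1:1 with each 100 mM buffer (glycylglycine pH 3.0/4.0/5.0; bistrispropane pH 6.0/6.5/7.0/7.5/8.0); hold 18 hours at room temperature; centrifuge; quantify polypeptide by UPLC.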

[4] = hCTR funct. EC50 over hAmylin-R funct. EC50
[5] = human functional selectivity: hCTR funct. EC50 / hAmylin-R funct. EC50
[6] = Table 7, rat binding selectivity, rCTR IC50 / rAmylin-R IC50
[7] = Table 7a (preferred compounds), rat binding selectivity, rCTR IC50 / rAmylin-R IC50
[8] = ratio of rCTR bind IC50 to rAmylin-R bind IC50
[9] = bistrispropane buffer, pH 6.5, read-out: Solubility pH 6.5 Concentration
[10] = bistrispropane buffer, pH 7.5, read-out: Solubility pH 7.5 Concentration
[11] = bistrispropane buffer, pH 6.0, read-out: Solubility pH 6.0 Concentration
[12] = bistrispropane buffer, pH 7.0, read-out: Solubility pH 7.0 Concentration
[13] = bistrispropane buffer, pH 8.0, read-out: Solubility pH 8.0 Concentration
[14] = glycylglycine buffer, pH 4.0, read-out: Solubility pH 4.0 Concentration
[15] = glycylglycine buffer, pH 5.0, read-out: Solubility pH 5.0 Concentration
[16] = hCTR funct. EC50 divided by hAmylin-R funct. EC50
[17] = glycylglycine buffer, pH 3.0, read-out: Solubility pH 3.0 Concentration

Ratio hCT/hAmylin funct. [1, 4] | Ratio hCT/hAmylin funct. [1, 5] | IC50 ([2]; Table 7) [nM] | Ratio rCT/rAmylin binding [2, 6] | Ratio rCT/rAmylin binding [2, 7] | Ratio rCT/rAmylin binding [2, 8] | IC50 (rat calcitonin receptor) [nM] | solubility at 18 h [3, 9] [µM] | solubility at 18 h [3, 10] [µM] | solubility at 18 h [3, 11] [µM] | solubility at 18 h [3, 12] [µM] | solubility at 18 h [3, 13] [µM] | solubility at 18 h [3, 14] [µM] | solubility at 18 h [3, 15] [µM] | Ratio hCT/hAmylin funct. [1, 16] | solubility at 18 h [3, 17] [µM] | Solubility pH 6.5 Concentration [3] | Solubility pH 7.0 Concentration [3] | EC50 ([1]; human amylin receptor functional potency, assay (II), read-out: hAmylin-R funct. EC50) [nM] | SMILES
5.8 | 5.8 | 0.449 | 74.7 | 74.7 | 74.7 | 33.5 | ≥ 200 | ≥ 200 | ≥ 200 | ≥ 200 | ≥ 200 | ≥ 200 | ≥ 200 | – | – | – | – | – | CC[C@H](C)[C@H](NC(=O)[C@H](C)NC(=O)CNC(=O)[C@H](Cc1ccccc1)NC(=O)[C@H](CC(N)=O)NC(=O)[C@@H]1CCCN1C(=O)[C@H](CO)NC(=O)[C@H](CO)NC(=O)[C@H](Cc1c[nH]cn1)NC(=O)[C@H](CCCNC(=N)N)NC(=O)[C@H](CC(C)C)NC(=O)[C@H](Cc1ccccc1)NC(=O)[C@H](CCC(=O)O)NC(=O)[C@H](C)NC(=O)[C@H](CC(C)C)NC(=O)[C@H](CCCNC(=N)N)NC(=O)[C@H](CCC(N)=O)NC(=O)[C@@H](NC(=O)[C@H](C)NC(=O)[C@@H]1CSSC[C@H](NC(=O)[C@@H](N)CCCCNC(=O)CC[C@H](NC(=O)CC[C@H](NC(=O)CCCCCCCCCCCCCCCCCCC(=O)O)C(=O)O)C(=O)O)C(=O)N[C@@H](CC(N)=O)C(=O)N[C@@H]([C@@H](C)O)C(=O)N[C@@H](C)C(=O)N[C@@H]([C@@H](C)O)C(=O)N1)[C@@H](C)O)C(=O)N[C@@H](CC(C)C)C(=O)N[C@@H](CO)C(=O)N[C@@H](CO)C(=O)N[C@H](C(=O)N1CCC[C@H]1C(=O)N[C@H](C(=O)NCC(=O)N1CCC[C@H]1C(=O)N[C@@H](CCC(=O)O)C(=O)N[C@H](C(=O)N[C@@H](Cc1ccc(O)cc1)C(N)=O)[C@@H](C)O)C(C)C)[C@@H](C)O [Example 121] (H-K([γGlu-γGlu-C20 diacid])CNTATCATQRLAEFLRHSSPNFGAILSSTPVGPETY-NH2; disulfide 2-7; N-terminus assumed)
21.9 | 21.9 | 0.135 | 76.6 | 76.6 | 76.6 | 10.3 | ≥ 200 | 96 (≈ 438 µg/mL) | ≥ 200 | ≥ 200 | 48 (≈ 219 µg/mL) | ≥ 200 | ≥ 200 | 21.9 | ≥ 200 | ≧200 μM | ≧200 μM | – | CC[C@H](C)[C@H](NC(=O)[C@H](C)NC(=O)CNC(=O)[C@H](Cc1ccccc1)NC(=O)[C@H](CC(N)=O)NC(=O)[C@@H]1CCCN1C(=O)[C@H](CO)NC(=O)[C@H](CO)NC(=O)[C@H](Cc1c[nH]cn1)NC(=O)[C@H](CCCNC(=N)N)NC(=O)[C@H](CC(C)C)NC(=O)[C@H](Cc1ccccc1)NC(=O)[C@H](CC(N)=O)NC(=O)[C@H](C)NC(=O)[C@H](CC(C)C)NC(=O)[C@H](CCCNC(=N)N)NC(=O)[C@H](CCC(N)=O)NC(=O)[C@@H](NC(=O)[C@H](C)NC(=O)[C@@H]1CSSC[C@H](NC(=O)[C@@H](N)CCCCNC(=O)COCCOCCNC(=O)CC[C@H](NC(=O)CCCCCCCCCCCCCCCCCCC(=O)O)C(=O)O)C(=O)N[C@@H](CC(N)=O)C(=O)N[C@@H]([C@@H](C)O)C(=O)N[C@@H](C)C(=O)N[C@@H]([C@@H](C)O)C(=O)N1)[C@@H](C)O)C(=O)N1CCC[C@H]1C(=O)N[C@@H](CO)C(=O)N[C@@H](CO)C(=O)N[C@H](C(=O)N[C@@H](CC(N)=O)C(=O)N[C@H](C(=O)NCC(=O)N1CCC[C@H]1C(=O)N[C@@H](Cc1c[nH]cn1)C(=O)N[C@H](C(=O)N[C@@H](Cc1ccc(O)cc1)C(N)=O)[C@@H](C)O)C(C)C)[C@@H](C)O [Example 58] (H-K([AEEA-γGlu-C20 diacid])CNTATCATQRLANFLRHSSPNFGAIPSSTNVGPHTY-NH2; disulfide 2-7)
20.1 | 20.1 | 0.581 | 35.8 | 35.8 | 35.8 | 20.8 | ≥ 200 | 131 (≈ 580 µg/mL) | ≥ 200 | ≥ 200 | 52 (≈ 230 µg/mL) | ≥ 200 | ≥ 200 | 20.1 | ≥ 200 | ≧200 μM | ≧200 μM | 0.027 | CC[C@H](C)[C@H](NC(=O)[C@H](C)NC(=O)CNC(=O)[C@H](Cc1ccccc1)NC(=O)[C@H](CC(N)=O)NC(=O)[C@@H]1CCCN1C(=O)[C@H](CO)NC(=O)[C@H](CO)NC(=O)[C@H](Cc1c[nH]cn1)NC(=O)[C@H](CCCNC(=N)N)NC(=O)[C@H](CC(C)C)NC(=O)[C@H](Cc1ccccc1)NC(=O)[C@H](Cc1c[nH]cn1)NC(=O)[C@H](C)NC(=O)[C@H](CC(C)C)NC(=O)[C@H](CCCNC(=N)N)NC(=O)[C@H](CCC(N)=O)NC(=O)[C@@H](NC(=O)[C@H](C)NC(=O)[C@@H]1CSSC[C@H](NC(=O)[C@@H](N)CCCCNC(=O)CC[C@H](NC(=O)CCCCCCCCCCCCCCCCCCC(=O)O)C(=O)O)C(=O)N[C@@H](CC(N)=O)C(=O)N[C@@H]([C@@H](C)O)C(=O)N[C@@H](C)C(=O)N[C@@H]([C@@H](C)O)C(=O)N1)[C@@H](C)O)C(=O)N1CCC[C@H]1C(=O)N[C@@H](CO)C(=O)N[C@@H](CO)C(=O)N[C@H](C(=O)N[C@@H](CC(N)=O)C(=O)N[C@H](C(=O)NCC(=O)N[C@@H](CO)C(=O)N[C@@H](Cc1c[nH]cn1)C(=O)N[C@H](C(=O)N[C@@H](Cc1ccc(O)cc1)C(N)=O)[C@@H](C)O)C(C)C)[C@@H](C)O [Example 66] (H-K([γGlu-C20 diacid])CNTATCATQRLAHFLRHSSPNFGAIPSSTNVGSHTY-NH2; disulfide 2-7; N-terminus assumed)
8.7 | 8.7 | 0.322 | 67.0 | 67.0 | 67.0 | 21.6 | ≥ 200 | ≥ 200 | ≥ 200 | ≥ 200 | ≥ 200 | ≥ 200 | ≥ 200 | 8.7 | ≥ 200 | – | – | – | CC[C@H](C)[C@H](NC(=O)[C@H](C)NC(=O)CNC(=O)[C@H](Cc1ccccc1)NC(=O)[C@H](CC(N)=O)NC(=O)[C@@H]1CCCN1C(=O)[C@H](CO)NC(=O)[C@H](CO)NC(=O)[C@H](Cc1c[nH]cn1)NC(=O)[C@H](CCCNC(=N)N)NC(=O)[C@H](CC(C)C)NC(=O)[C@H](Cc1ccccc1)NC(=O)[C@H](CC(N)=O)NC(=O)[C@H](C)NC(=O)[C@H](CC(C)C)NC(=O)[C@H](CCCNC(=N)N)NC(=O)[C@H](CCC(N)=O)NC(=O)[C@@H](NC(=O)[C@H](C)NC(=O)[C@@H]1CSSC[C@H](NC(=O)[C@H](CCCCN)NC(=O)CC[C@H](NC(=O)CCCCCCCCCCCCCCCCCCC(=O)O)C(=O)O)C(=O)N[C@@H](CC(N)=O)C(=O)N[C@@H]([C@@H](C)O)C(=O)N[C@@H](C)C(=O)N[C@@H]([C@@H](C)O)C(=O)N1)[C@@H](C)O)C(=O)N1CCC[C@H]1C(=O)N[C@@H](CO)C(=O)N[C@@H](CO)C(=O)N[C@H](C(=O)N[C@@H](CC(N)=O)C(=O)N[C@H](C(=O)NCC(=O)N1CCC[C@H]1C(=O)N[C@@H](CCC(=O)O)C(=O)N[C@H](C(=O)N[C@@H](Cc1ccc(O)cc1)C(N)=O)[C@@H](C)O)C(C)C)[C@@H](C)O [Example 29] ({C20 diacid-γGlu}-KCNTATCATQRLANFLRHSSPNFGAIPSSTNVGPETY-NH2; disulfide 2-7)
